Reference: ChEMBL document CHEMBL1201862, “PubChem BioAssay data set” (2004)
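Each compound was tested at five concentrations against cells in 96-well plates for 48 hours. GI50: concentration for 50% inhibition of growth.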 Activity calls are given as the source filed them. Rule as the data show it: active = GI50 up to about 1.1 µM and inactive = higher.

Assays:
Experiment in all cases: DTP human tumour cell line panel, 48 h
[1] = test system: SK-MEL-2
[2] = test system: OVCAR-4
[3] = test system: NCI-H522
[4] = test system: SF-295
[5] = test system: SK-MEL-5
[6] = test system: HOP-18
[7] = test system: UACC-62
[8] = test system: ACHN
[9] = test system: UO-31
[10] = test system: UACC-257
[11] = test system: OVCAR-5
[12] = test system: SW-620
[13] = test system: RXF 631
[14] = test system: COLO 205
[15] = test system: K562
[16] = test system: TK-10
[17] = test system: HT-29
[18] = test system: SF-539
[19] = test system: EKVX
[20] = test system: Malme-3M
[21] = test system: RXF 393
[22] = test system: CCRF-CEM
[23] = test system: HOP-62
[24] = test system: DLD-1
[25] = test system: SNB-78
[26] = test system: DMS-273
[27] = test system: SF-268
[28] = test system: XF498
[29] = test system: CAKI-1
[30] = test system: U-251
[31] = test system: NCI-H23
[32] = test system: SK-OV-3
[33] = test system: SR
[34] = test system: KM12
[35] = test system: SNB-19
[36] = test system: SK-MEL-28
[37] = test system: HOP-92
[38] = test system: M19-MEL
[39] = test system: HCT-15
[40] = test system: HCT-116
[41] = test system: NCI-H460
[42] = test system: NCI-H226
[43] = test system: 786-0
[44] = test system: SNB-75
[45] = test system: LXFL 529
[46] = test system: HCC 2998
[47] = test system: A549
[48] = test system: M14
[49] = test system: A498
[50] = test system: IGROV-1
[51] = test system: HL-60
[52] = test system: DMS-114
[53] = test system: OVCAR-3
[54] = test system: OVCAR-8
[55] = test system: SN12C
[56] = test system: MOLT-4
[57] = test system: RPMI-8226
[58] = test system: KM-20L2

CC(C)S(=O)(=O)ON1C(=O)c2ccc([N+](=O)[O-])cc2C1=O
GI50 [1]: > 100 µM (inactive)
GI50 [2]: > 100 µM (inactive)
GI50 [3]: > 100 µM (inactive)
GI50 [4]: > 100 µM (inactive)
GI50 [5]: > 100 µM (inactive)
GI50 [6]: > 100 µM (inactive)
GI50 [7]: > 100 µM (inactive)
GI50 [8]: > 100 µM (inactive)
GI50 [9]: > 100 µM (inactive)
GI50 [10]: > 100 µM (inactive)
GI50 [11]: > 100 µM (inactive)
GI50 [12]: > 100 µM (inactive)
GI50 [13]: > 100 µM (inactive)
GI50 [14]: > 100 µM (inactive)
GI50 [15]: > 100 µM (inactive)
GI50 [16]: > 100 µM (inactive)
GI50 [17]: > 100 µM (inactive)
GI50 [18]: > 100 µM (inactive)
GI50 [19]: > 100 µM (inactive)
GI50 [20]: > 100 µM (inactive)
GI50 [21]: > 100 µM (inactive)
GI50 [22]: > 100 µM (inactive)
GI50 [23]: > 100 µM (inactive)
GI50 [24]: > 100 µM (inactive)
GI50 [25]: > 100 µM (inactive)
GI50 [26]: > 100 µM (inactive)
GI50 [27]: > 100 µM (inactive)
GI50 [28]: > 100 µM (inactive)
GI50 [29]: > 100 µM (inactive)
GI50 [30]: > 100 µM (inactive)
GI50 [31]: > 100 µM (inactive)
GI50 [32]: > 100 µM (inactive)
GI50 [33]: > 100 µM (inactive)
GI50 [34]: > 100 µM (inactive)
GI50 [35]: > 100 µM (inactive)
GI50 [36]: > 100 µM (inactive)
GI50 [37]: 41.9 µM (inactive)
GI50 [38]: > 100 µM (inactive)
GI50 [39]: > 100 µM
GI50 [40]: > 100 µM (inactive)
GI50 [41]: > 100 µM (inactive)
GI50 [42]: > 100 µM (inactive)
GI50 [43]: > 100 µM (inactive)
GI50 [44]: > 100 µM (inactive)
GI50 [45]: > 100 µM (inactive)
GI50 [46]: > 100 µM (inactive)
GI50 [47]: > 100 µM (inactive)
GI50 [48]: > 100 µM (inactive)
GI50 [49]: > 100 µM (inactive)
GI50 [50]: > 100 µM (inactive)
GI50 [51]: > 100 µM (inactive)
GI50 [52]: > 100 µM (inactive)
GI50 [53]: > 100 µM (inactive)
GI50 [54]: > 100 µM (inactive)
GI50 [55]: > 100 µM (inactive)

N#CCC(=O)Nc1ccccc1O
GI50 [1]: > 100 µM (inactive)
GI50 [2]: > 100 µM (inactive)
GI50 [3]: > 100 µM (inactive)
GI50 [4]: > 100 µM (inactive)
GI50 [5]: > 100 µM (inactive)
GI50 [6]: > 100 µM (inactive)
GI50 [7]: > 100 µM (inactive)
GI50 [8]: > 100 µM (inactive)
GI50 [56]: > 100 µM (inactive)
GI50 [9]: > 100 µM (inactive)
GI50 [10]: > 100 µM (inactive)
GI50 [11]: > 100 µM (inactive)
GI50 [12]: > 100 µM (inactive)
GI50 [13]: > 100 µM (inactive)
GI50 [14]: > 100 µM (inactive)
GI50 [15]: > 100 µM (inactive)
GI50 [16]: > 100 µM (inactive)
GI50 [17]: > 100 µM (inactive)
GI50 [18]: > 100 µM (inactive)
GI50 [19]: > 100 µM (inactive)
GI50 [20]: > 100 µM (inactive)
GI50 [21]: > 100 µM (inactive)
GI50 [22]: > 100 µM (inactive)
GI50 [23]: > 100 µM (inactive)
GI50 [24]: > 100 µM (inactive)
GI50 [57]: > 100 µM (inactive)
GI50 [25]: > 100 µM (inactive)
GI50 [26]: > 100 µM (inactive)
GI50 [27]: > 100 µM (inactive)
GI50 [28]: > 100 µM (inactive)
GI50 [29]: > 100 µM (inactive)
GI50 [30]: > 100 µM (inactive)
GI50 [31]: > 100 µM (inactive)
GI50 [32]: > 100 µM (inactive)
GI50 [33]: > 100 µM (inactive)
GI50 [34]: > 100 µM (inactive)
GI50 [58]: > 100 µM (inactive)
GI50 [35]: > 100 µM (inactive)
GI50 [36]: > 100 µM (inactive)
GI50 [37]: > 100 µM (inactive)
GI50 [38]: > 100 µM (inactive)
GI50 [39]: > 100 µM
GI50 [40]: > 100 µM (inactive)
GI50 [41]: > 100 µM (inactive)
GI50 [42]: > 100 µM (inactive)
GI50 [43]: > 100 µM (inactive)
GI50 [44]: > 100 µM (inactive)
GI50 [45]: > 100 µM (inactive)
GI50 [46]: > 100 µM (inactive)
GI50 [47]: > 100 µM (inactive)
GI50 [48]: > 100 µM (inactive)
GI50 [49]: > 100 µM (inactive)
GI50 [50]: > 100 µM (inactive)
GI50 [51]: > 100 µM (inactive)
GI50 [53]: > 100 µM (inactive)
GI50 [54]: > 100 µM (inactive)
GI50 [55]: > 100 µM (inactive)
